Data set [1] in a line: No Observed Adverse Effect Level (NOAEL) for HMB oral ingestion in rats. It is filed as in vivo. The protocol:
This is an estimated human equivalent of 558 mg/kg and 665 mg/kg for men and women, respectively; assuming a body weight of 150 lbs equates to 38 g (males) and 45 g (females). […] Overall, standard doses of HMB appear to be well-tolerated over long periods of time.

Data set [2] relates to rosuvastatin-induced myalgia and myopathy. Put plainly: Initial assessment of HMB reversal of statin myalgia (single volunteer). It is filed as in vivo, human. On the procedure:
A healthy, fully informed and consenting adult volunteer with severe rosuvastatin-induced myalgia and myopathy and pre-statin LDL of 260 was administered 1 gram HMB three times a day (3 grams/day total) while rosuvastatin therapy was continued. Within 72 hours of the initial HMB administration, statin myalgia/myopathy fully subsided. During brief intervals where HMB treatment was discontinued (i.e., unintentionally skipped doses), the subject reported a return of myalgia, which again subsided upon reinstatement of HMB treatment.

Data set [3] concerns patients with statin-induced myopathy (SIM). It is filed as in vivo, human. On the procedure:
A clinical study was conducted to evaluate the effects of HMB on patients with statin-induced myopathy (SIM). A total of eighteen patients were evaluated for the study with informed written consent obtained. Of the eighteen patients, fourteen (14) ultimately qualified as having true statin myalgia and were enrolled in the study. All patients enrolled were under the care of a board certified cardiologist.
A summary of the enrolled patients and their outcomes is as follows: • 1. All 14 had type 2a or mixed hyperlipidemia. • 2. All 14 had been treated with multiple statin agents, in each case withdrawing from the statin agent due to myalgia/myopathy. • 3. Of the 14 patients enrolled, 4 had elevated CPKs (creatine phosphokinase, a biomarker for myositis/rhabdomyolysis) secondary to SIM. • 4. Five of the 14 patients had undergone prior percutaneous coronary intervention with stents. • 5. One of the 14 patients had undergone prior coronary bypass surgery. • 6. Four of the 14 patients had angiographically documented moderate coronary artery disease not requiring percutaneous coronary intervention (PCI)/coronary bypass. • 7. Four of the 18 patients were disqualified due to the following: • Patient's leg myalgia was secondary to angiographically proven peripheral vascular disease, not SIM and symptoms were consistent with this diagnosis. • Patient's unilateral leg pain was secondary to neuropathy, not SIM. • Patient complained of GI upset on combined statin+3-hydroxy 3-methybutyrate and medication was discontinued. […] All 14 qualified patients remained on combination statin (in some cases with Zetia to achieve target) plus HMB therapy after the initial duration of the study. As noted, of those who had previously discontinued statin therapy, all had been tried on multiple statin agents without success. • 9. Follow up was conducted with all patients including out-patient visits and phone conversation. • 10.
The free acid form was used in one patient who experienced major CPK elevations (900-1000 IU/L range) and disabling myalgia on statins.
For this study, patients were evaluated using multiple laboratories with variable lab normal ranges, which are included. In the patient population as a whole, the full spectrum of SIM is presented, including statin myalgia […] CPK elevation (myositis or rhabdomyolysis depending on severity), elevation of CPK without myalgia, post-statin elevation of CPK with and without pain, post-statin myalgia without CPK elevation, and, finally, statin-induced muscle weakness without myalgia. Also represented were other statin-induced side effects such as short-term memory loss and glucose intolerance.

The test system of data set [4] is statin-induced short-term memory loss. Put plainly: Treatment of statin-induced short-term memory loss with HMB. Type of data set: in vivo, human. The following applies: within two months of HMB treatment, statin continued. An excerpt:
HMB administration is used to treat short-term memory loss, an unusual side effect resulting from statin administration. […] Protocol: Patient describes short term memory loss after starting statin. Initiate the following steps: • 1. Assess memory loss with standardized neuro-psychometric testing as baseline status; • 2. Initiate calcium HMB monohydrate, 2 g twice daily; or calcium free acid gel, 1 g three times daily; • 3. Continue statin therapy with no dose change; • 4. Obtain baseline lab (lipid panel, CPK, liver function/metabolic profile) and repeat in 12 weeks; • 5. Reassess memory status in 12 weeks repeating psycho-metric testing and comparing to baseline study.

Data set [5] relates to statin-induced abnormal liver function. Put plainly: Treatment of statin-induced abnormal liver function using HMB. Type of data set: in vivo, human. The following applies: within 3 months of beginning HMB treatment. On the procedure: Elevated liver function tests (LFTs) are common in statin users. The presence of elevated transaminases, commonly the transaminases alanine transaminase (ALT or SGPT) and aspartate transaminase (AST or SGOT), are indicators of liver damage. Terms for this condition include transaminasemia and transaminitis, Normal ranges for both ALT and AST are 8-40 U/L with mild transaminesemia noted to the upward numerical limit of 250 U/L. Here, HMB is administered to normalize abnormal liver function tests and reverse transaminitis. […] Once enrolled, initiate the following steps: • 1. Initiate calcium HMB monohydrate, 2 g twice daily or HMB free acid (gel form), 1 g three times daily; • 2. Continue statin agent with no dose change; • 3. Repeat liver panel in 3 months and compare to baseline.

The test system of data set [6] is statin-induced glucose intolerance. Put plainly: Treatment of statin-induced glucose intolerance using HMB. Type of data set: in vivo, human. The text has this:
Glucose intolerance with hyperglycemia/increased risk for diabetes, probably related to insulin resistance, has been reported in statin users, especially lipophilic statins such as […], less so in hydrophilic statins such as pravastatin. Here, HMB administration is used to treat statin-related glucose intolerance. Protocol: type 1, 1.5, and 2 diabetics with hemoglobin A1C at or exceeding 6.5% are eligible; also eligible are hyperglycemic/increased risk for diabetes patients not on diabetic treatment but with a hemoglobin A1C at or exceeding 5.7%; patients with critical value fasting blood glucose and hemoglobin A1C levels are excluded. Once enrolled, the following steps are initiated: • 1. Continue statin and diabetic medications with dosages unchanged; • 2. Initiate calcium HMB monohydrate, 2 g twice daily, or HMB free acid (gel form), 1 g three times daily; • 3. Repeat fasting blood glucose and hemoglobin A1C in 3 weeks and 6 weeks;

For data set [7], the system named is statin-related cumulative trauma disorder. Put plainly: Treatment of statin-related cumulative trauma disorder using HMB. Type of data set: in vivo, human. Particulars: within 6 weeks of beginning HMB treatment. An excerpt:
Cumulative trauma disorder, also known as chronic overuse syndrome, is characterized by muscle damage due to performing repetitive activities over time. Statin users are particularly vulnerable to cumulative trauma disorder due to impaired ability to heal chronically micro-traumatized muscle. Here, HMB is used to treat cumulative trauma disorder. Protocol: Patients are enrolled if they qualify with symptoms that include chronic muscle weakness and pain complemented by an occupation or lifestyle lending itself to chronic overuse syndrome (e.g., construction workers, etc.). All patients are currently on statins. Initial documentation of strength levels and pain severity are required. Pain is evaluated using the Verbal Numerical Rating Scale (VNRS). Strength is measured using the Manual Muscle Testing/5-point scale. Additionally, grip strength is measured using a dynamometer. Once enrolled, the following steps are initiated: • 1. Obtain baseline lab including lipid panel and CPK-MM levels; • 2. Continue statin with dose unchanged; • 3. Continue repetitive activity in question at the same level of intensity; • 4. […]

The conditions of data set [8]: cited from earlier work.
For data set [9] the following is noted: cited from earlier work. The source holds these as a separate data set.

Some results are limits rather than exact numbers.

As to `CC(C)(O)CC(=O)O` [HMB, β-hydroxy β-methylbutyrate], the entries for the “human equivalent of NOAEL assuming a body weight of 150 lbs” value in data set [1] (females) and in [1] (males) were 45 g and 38 g, respectively. The “time until statin myalgia/myopathy fully subsided” value in data set [2] (1 gram HMB three times a day, rosuvastatin continued, one volunteer) is no more than 72 h. Also, the “benefit of increased HMB dosage” value in data set [2] (increase to 6 grams/day) is on record as “no additional benefit”. In addition, the “short term memory loss” value in [3] (Patient F-6, atorvastatin 40 mg + Zetia 10 mg + 2 g BID, 2-month follow-up) is reported as “mostly resolved”. The “response of SIM symptoms” value in data set [3] (all 14 qualifying patients, combination statin plus HMB) was “complete resolution of SIM symptoms”. In data set [3] (the disqualified patient with GI upset, after HMB treatment), the SIM-related myalgia entry was “resolved completely”. Moreover, the short-term memory loss result in data set [4] is recorded as “reversal of some or all short-term memory loss”. The ALT/SGPT result in [5] is on record as “less than 40 U/L”. Further, the AST/SGOT result in data set [5] is given as “less than 40 U/L”. Also, the fasting blood glucose result in data set [6] (diabetic patients, within 6 weeks) was “less than 130 mg %”; in data set [6] (hyperglycemic/non-diabetic management patients, within 6 weeks), “less than 100 mg %”. In addition, the “hemoglobin A1C” value is recorded as “below 6.5%” in data set [6] (diabetics, within 6 weeks of beginning HMB treatment) and less than 5.7% in data set [6] (hyperglycemics on dietary management, within 6 weeks). Further, the pain severity entry in [7] is on record as “reduced pain severity”. Moreover, in [7], the strength levels result is recorded as “increased strength levels”. The “toxicological parameters in serum” value in data set [8] (3 g HMB daily for up to 8 weeks, youth and older persons) was “failed to alter toxicological parameters in serum”. Also, the “safety on long administration” value in data set [8] (3 g daily, one year of administration) is “safe”. Further, in data set [8] (approximately 6 g HMB daily (78 mg/kg) for one month, untrained young males subject to exercise), the “toxic effects on serum parameters” value is “did not show any toxic effects”. Also, the tolerability result in data set [8] (standard doses, long periods of time) was “well-tolerated”. Moreover, the half-life entry in [9] (in vivo) is listed as “relatively short”. Further, the “time to peak levels” value in [9] (in vivo) is given as “quickly”. The “area under blood level curve” value in data set [9] (when ingested with glucose) is reported as “reduced”.

The record behind these values is patent publication US11147781B2, “Methods for alleviating statin myopathy” (priority 2014, dated 2021).
